The text below walks through data of US20110166196A1, “TREATMENT AND PROPHYLAXIS OF EPILEPSY AND FEBRILE SEIZURES” (priority 2008, published 2011).

SMILES strings stand for the structures.

In test [1] the test system is excitatory synapses onto CA1 hippocampal interneurons. The experiment in a line: HFS-induced long-term depression (LTD) of EPSCs, whole-cell recording in hippocampal slices. The test is classed as cell-based, rat. The source says:
(§1) The basic methods have been detailed previously (McMahon and Kauer, 1997). Sprague-Dawley rats (15-22 days old) were used in the majority of experiments. In addition, we used TRPV1^−/− mice (Caterina et al., 2000) and wild-type C57BL/6 mice aged between 15 and 21 days (Jackson Laboratory). The TRPV1^−/− mice we used have been backcrossed at least 10 times onto a C57BL/6 background and were obtained from homozygous breeding pairs. Control mice were therefore not littermates but were age-matched, wild-type C57BL/6 animals received from the same supplier in the same shipment. All animal protocols were approved by the Brown University Institutional Animal Care and Use Committee. For mouse experiments, only one brain slice per mouse was used for each experiment, so that reported ‘n’ numbers represent the number of animals. Animals were anaesthetized using halothane or isoflurane and quickly decapitated. The brain was rapidly removed and 300 μm thick coronal slices prepared and stored for at least one hour submerged on a net in artificial cerebrospinal fluid (ACSF) containing in mM: 119 NaCl, 26 NaHCO3, 2.5 KCl, 1.0 NaH2PO4, 2.5 CaCl2, 1.3 MgSO4 and 11 dextrose, saturated with 95% O2/5% CO2 (pH 7.4). Slices were then transferred to a submerged recording chamber and bathed in oxygenated ACSF (28-32° C.) containing elevated divalent cations to reduce epileptiform activity (4 mM CaCl2 and 4 mM MgCl2, replacing MgSO4). A surgical cut was made between the CA3 and CA1 regions. The storage of slices submerged on a net rather than in an interface chamber on filter paper may be important in maintaining slice health and improving the likelihood of observing LTD.
(§2) Slices were continuously perfused with ACSF warmed to 28-32° C. at a flow rate of 1-2 ml/min. Picrotoxin (100 μM) and D-AP5 (50 μM) were added to block GABAA receptor- and NMDAR-mediated synaptic transmission. Whole-cell patch clamp recordings were made from interneurons identified visually in the CA1 stratum radiatum of the hippocampus. […] Patch pipettes were filled with internal recording solution containing in mM: 117 cesium gluconate, 2.8 NaCl, 5 MgCl2, 20 HEPES, 2 ATP-Na^+, 0.3 GTP-Na^+ and 0.6 EGTA. In some experiments 2 μM capsazepine, 140 nM baicalein, or 250 μM GDPβS were also included in the intracellular patch pipette solution. In experiments with BAPTA-containing patch electrodes, EGTA was omitted from the intracellular solution and 25 or 40 mM BAPTA replaced a corresponding amount of cesium gluconate. EPSCs were stimulated at 0.1 Hz (100 μsec) using a bipolar stainless steel stimulating electrode placed in stratum radiatum at least 200 μm from the recorded cell. CA1 interneurons were voltage clamped at −65 mV (not corrected for the liquid junction potential, of ˜10 mV), and EPSCs were evoked by paired pulses with an interval of 50 msec (stimulus intensity typically 50-400 μA). In early experiments, we measured rectification ratios of EPSCs evoked at +40 mV/−60 mV in the presence of 50 μM D-AP5, measured at the time of peak inward synaptic current seen at −70 mV (Lei and McBain, 2004).
High-frequency stimulation was used to induce LTD (HFS; two 1 sec trains at 100 Hz, inter-train interval 20 sec, at 1.5 times test current intensity) with the neuron held in current-clamp mode, so that the HFS trains were delivered with the membrane potential free to vary. Receptor antagonists were added directly to the ACSF at known concentrations for at least 10 minutes prior to HFS. Control experiments were interleaved with those experiments using receptor antagonists or involving slices from TRPVl^−/− mice. The cell input resistance and series resistance were monitored throughout each experiment; cells were discarded if these values changed by more than 10% during the experiment.

The test system is the same in test [2]. The test can be described thus: Drug-induced depression of EPSC amplitudes, whole-cell recording in hippocampal slices. The test is classed as cell-based, rat.
Source text: as §1, §2
The maximal initial slope of fEPSPs was calculated using a LabVIEW-based program (National Instruments). The peak amplitude of each EPSC was measured by comparing a 10 msec time period immediately prior to the stimulus with the peak of the EPSC using this program as well. Occasionally polysynaptic responses were evoked, and in these cases, only the initial monosynaptic event was measured. To positively identify LTD, EPSCs measured every 10 seconds were averaged in 1 minute intervals. EPSC amplitude values were normalized to control pre-HFS EPSC amplitude values (baseline period of at least 5 minutes prior to HFS) and subjected to analysis of variance (ANOVA) repeated measures analysis with a post-hoc Dunnett's test (GraphPad Prism, Version 4).

Another test relates to hippocampal area CA1. Conditions: in vivo treatment of animals after the induction of febrile seizures; cited from earlier work.
In test [3] the test system is CA1 pyramidal neurons from trpv1−/− mice. The test can be described thus: Residual heat-activated current in CA1 pyramidal neurons from trpv1-/- mice. The test is classed as cell-based, mouse. Conditions: 10 μM ruthenium red bath; trpv1−/− CA1 neurons (34.6±8.4 pA without); n=5.

On to `Nc1nc2c(ncn2[C@@H]2O[C@H](COP(=O)(O)OP(O)(O)=S)[C@@H](O)[C@H]2O)c(=O)[nH]1` [GDPβS], for which the “cells recorded from with intracellular GDPβS that had LTD” value in test [1] (patch pipette solution containing 250 μM GDPβS) is 6 of 10. For the same molecule, the “EPSC amplitudes 15-20 minutes post-HFS with intracellular GDPβS” value in test [1] (patch pipette solution containing 250 μM GDPβS, n=10) is given as 88.2±10.6 % of control values before HFS.

In the case of `COC(=O)[C@@H](N)CCCNC(=N)N[N+](=O)[O-]` [L-NAME], the “EPSC amplitudes 15-20 minutes post-HFS” value in test [1] (200 μM L-NAME bath applied 10 minutes prior to HFS, n=5) is 46.3±10.4 % of control values before HFS.

Take `Cc1c(C(=O)NN2CCCCC2)nn(-c2ccc(Cl)cc2Cl)c1-c1ccc(Cl)cc1` [SR141716A]: the “EPSC amplitudes 15-20 minutes post-HFS” value in test [1] (SR141716A 2-5 μM bath-applied, n=10, control LTD 62.0±5.3%) was 110.6±19.3 % of control values before HFS. In test [2] (SR141716A 2 μM pretreatment, capsaicin 1 μM, n=6), the “EPSC amplitudes after 10-15 minutes in capsaicin and in the presence of SR141716A” value is 102.8±9.2 % of pre-capsaicin control values. For the same molecule, the “EPSC amplitudes after 10-15 minutes in 12-(S)-HPETE and in the presence of SR141716A” value in test [2] (SR141716A 2 μM, 12-(S)-HPETE 100 nM, n=5) is 106.9±5.5 % of pre-12-(S)-HPETE control values. In the test with hippocampal area CA1, the “emergence of long-term limbic hyperexcitability” value is recorded as “prevented the emergence of long-term limbic hyperexcitability” and the “hyperexcitability in hippocampal area CA1” value is on record as “reduced hyperexcitability in hippocampal area CA1”.

For the molecule `Cc1c(C(=O)c2cccc3ccccc23)c2cccc3c2n1[C@H](CN1CCOCC1)CO3` [WIN 55,212-2], the “EPSC amplitudes 15-20 minutes post-HFS” value in test [1] (pre-treatment with WIN 55,212-2 1 μM for at least ten minutes, n=12) is reported as 51.3±7.5 % of control values in WIN55,212-2 before HFS. In addition, the “EPSC amplitudes after 10-15 minutes in WIN 55,212-2 alone” value in test [2] (WIN 55,212-2 1 μM bath-applied, n=14) was 66.1±7.9 % of pre-drug control values.

Turning to `O=c1cc(-c2ccccc2)oc2cc(O)c(O)c(O)c12` [baicalein], the “cells with potentiation (greater than 125% of control 20 minutes following the HFS)” value in test [1] (baicalein 500 nM bath-applied) is given as “four of ten”. The “EPSC amplitudes 15-20 minutes post-HFS” value in test [1] (baicalein 500 nM bath-applied, n=10) is 129.6±20.3 % of control values before HFS. In addition, the “cells recorded from with intracellular baicalein that had LTD” value in test [1] (patch pipette solution containing 140 nM baicalein) is 4 of 12. In addition, the “EPSC amplitudes 15-20 minutes post-HFS with intracellular baicalein” value in test [1] (patch pipette solution containing 140 nM baicalein, n=12) was 110.8±15.4 % of control values before HFS.

For the molecule `N.N.N.N.N.N.N.N.N.N.N.N.N.N.[Cl-].[Cl-].[Cl-].[Cl-].[Cl-].[Cl-].[O-2].[O-2].[Ru+3].[Ru+3].[Ru+4]` [ruthenium red], in test [3], the “peak heat-evoked inward current in ruthenium red” value is 9.3±7.7 pA.
